US20020028938A1, “Prostaglandin endoperoxide H synthase biosynthesis inhibitors” (priority 1997, published 2002)

What was measured:
[1] = test system: air pouch prostaglandin biosynthesis (Cox-2); experiment: Carrageenan induced air pouch prostaglandin biosynthesis model (CAP); format: in vivo, rat; settings: for inhibition in vivo at 3 mg/kg: 4 h, 3 mpk, rat, read-out: CAP % Inhib. @ 3 mpk; for ED50: Rattus norvegicus
Method in brief: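 Male Sprague Dawley rats with dorsal air pouches (20 mL air day 0, 10 mL day 3) received 0.2% lambda carrageenan in saline into the pouch on day 7. Compounds dosed at 0.1 to 10 mg/kg 30 min before carrageenan; pouch lavaged 4 h later, prostaglandins measured by EIA. Percent inhibition versus control mean; ED50 by linear regression.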

[2] = test system: prostaglandin biosynthesis in vivo (pleural lavage eicosanoids); experiment: Rat carrageenan pleural inflammation (CIP) model; settings: 4 h, 10 mpk oral, read-out: CIP % Inhib. @ 10 mpk
Method: For oral administration, test compounds were suspended on the day of use in 100% polyethyleneglycol (PEG 400) with a motorized homogenizer equipped with a Teflon-coated pestle (TRI-R Instrument, Jamaica, N.Y.).
To compare the mean responses of the treatment groups, analysis of variance was applied. Percent inhibition values were determined by comparing the individual treatment mean values to the mean of the control group. Linear regression was used to estimate IC50's/ED50's in appropriate assays.
Pleural inflammation was induced in male adrenalectomized Sprague-Dawley rats following the method of Vinegar et al., Fed. Proc. 1976, 35, 2447-2456. Animals were orally dosed with experimental compounds, 30 minutes prior to the intrapleural injection of 2% lambda carrageenan (Sigma Chemical Co., St. Louis Mo.). Four hours later the animals were euthanized and the pleural cavities lavaged with ice cold saline. The lavage fluid was then added to two volumes of ice cold methanol (final methanol concentration 66%) to lyse cells and precipitate protein. Eicosanoids were determined by EIA as described above.

[3] = target: T1, human amnionic whole cell cyclooxygenase-2 (WISH cells) (Homo sapiens, UniProt P35354); experiment: IL-1β induced PGE2 production in WISH cells; format: cell-based; settings: read-out: Wish IC50 (parenthetical value)
T1 construct: endogenous in cells; host or cells: human amnionic WISH cells, induced with IL-1beta
T1 sequence (P35354 18-604): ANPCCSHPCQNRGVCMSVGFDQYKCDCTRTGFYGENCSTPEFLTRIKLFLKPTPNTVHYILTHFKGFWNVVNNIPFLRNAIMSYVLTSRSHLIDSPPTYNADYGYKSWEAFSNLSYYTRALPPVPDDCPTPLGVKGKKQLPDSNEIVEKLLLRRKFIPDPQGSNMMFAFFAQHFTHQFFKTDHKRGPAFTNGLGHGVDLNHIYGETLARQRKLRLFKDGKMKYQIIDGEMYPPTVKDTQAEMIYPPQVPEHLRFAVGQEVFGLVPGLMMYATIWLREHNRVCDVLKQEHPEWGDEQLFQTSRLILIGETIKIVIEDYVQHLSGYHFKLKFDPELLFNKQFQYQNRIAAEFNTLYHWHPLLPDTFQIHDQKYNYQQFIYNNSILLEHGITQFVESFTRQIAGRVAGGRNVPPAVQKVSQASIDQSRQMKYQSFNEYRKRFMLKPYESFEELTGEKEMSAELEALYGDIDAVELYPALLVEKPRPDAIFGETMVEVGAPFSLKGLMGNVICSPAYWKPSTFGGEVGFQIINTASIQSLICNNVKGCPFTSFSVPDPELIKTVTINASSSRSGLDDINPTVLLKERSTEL
Method in brief: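 Confluent (80%) WISH cells were stimulated with 5 ng/ml IL-1β in serum-free Neuman-Tytell medium, with or without test compound in DMSO (0.01% v/v). PGE2 in the culture medium was measured by EIA against standards prepared in the same medium, read by optical density.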

[4] = target: T2, Human Whole Platelet Cyclooxygenase-1 (Homo sapiens, UniProt P23219); experiment: Human Whole Platelet Cyclooxygenase-1 assay (HWPX); format: cell-based; settings: read-out: HWPX IC50 (parenthetical value)
T2 construct: from tissue; host or cells: human blood: isolated platelets (A4) or heparinised whole blood (A9)
T2 sequence (P23219 24-599): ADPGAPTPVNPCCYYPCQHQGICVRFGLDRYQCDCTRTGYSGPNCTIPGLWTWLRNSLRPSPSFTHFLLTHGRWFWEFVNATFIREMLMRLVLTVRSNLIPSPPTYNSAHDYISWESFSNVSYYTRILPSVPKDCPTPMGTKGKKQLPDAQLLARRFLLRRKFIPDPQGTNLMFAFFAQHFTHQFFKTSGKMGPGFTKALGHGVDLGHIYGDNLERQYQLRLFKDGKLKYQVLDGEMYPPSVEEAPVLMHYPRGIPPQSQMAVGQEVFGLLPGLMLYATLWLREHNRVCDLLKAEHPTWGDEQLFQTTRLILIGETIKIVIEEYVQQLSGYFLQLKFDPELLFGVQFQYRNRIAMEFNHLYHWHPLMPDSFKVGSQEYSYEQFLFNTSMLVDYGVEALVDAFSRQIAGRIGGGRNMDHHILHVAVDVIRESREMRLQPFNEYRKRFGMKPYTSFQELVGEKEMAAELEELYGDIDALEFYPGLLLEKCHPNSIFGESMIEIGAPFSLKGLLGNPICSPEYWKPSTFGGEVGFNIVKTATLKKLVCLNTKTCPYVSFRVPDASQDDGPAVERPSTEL
Method in brief: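 Washed platelets from healthy-donor ACD blood were pre-incubated with compound for 10 min, then stimulated with calcium ionophore A23187 (8.8 μM final) for 10 min. Reaction stopped with cold 6 mM EDTA; thromboxane in supernatants quantified with a commercial kit.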

[5] = target: T3, recombinant human Cox-2 (r-hu Cox-2) (Homo sapiens, UniProt P35354); experiment: Recombinant human PGHS-2 enzyme assay (RHUCX2); format: biochemical; settings: for IC50: read-out: RHUCX2 IC50 (parenthetical value)
T3 construct: made in house; host or cells: baculovirus/Sf9 insect cells (microsomes)
T3 sequence (P35354 18-604): T1 sequence (P35354 18-604)
Method in brief: (§1)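 Recombinant enzyme reaction ran 2.5 minutes at room temperature, then was quenched with HCl and neutralized with NaOH. PGE2 formed with and without drug was quantified by EIA against standards in the same milieu. Percent inhibition versus control mean; IC50 by linear regression.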

[6] = test system: carrageenan induced paw edema; experiment: Carrageenan induced paw edema (CPE) in rats; format: in vivo; settings: rat; for inhibition in vivo at 10 mg/kg: 10 mpk oral, 3 hours after carrageenan, read-out: CPE % Inhib. @ 10 mpk; for CPE ED30: oral
Method in brief: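 Male Sprague-Dawley rats (170–190 g) dosed orally in PEG 400, 1 h before subplantar 0.1 ml 1% lambda carrageenan in right hindpaw. Plethysmographic paw volume at 0 and 3 h; edema as difference, % inhibition versus control mean (±SEM), Dunnett's test, ED50 by linear regression.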

[7] = target: T4, recombinant human Cox-1 (r-hu Cox1) (Homo sapiens, UniProt P23219); experiment: Recombinant human PGHS-1 enzyme assay (RHUCX1); format: biochemical; settings: for inhibition at 100 µM / inhibition at 10 µM: read-out: RHUCX1 % Inh. at Dose
T4 construct: made in house; host or cells: baculovirus/Sf9 insect cells (microsomes)
T4 sequence (P23219 24-599): as above
Method in brief: as §1

[8] = target: T5, Cox-1 in Monocyte U937 cells (Homo sapiens, UniProt P23219); experiment: Monocyte U937 cell Cox-1 assay; format: cell-based
T5 construct: endogenous in cells; host or cells: U937 monocyte cells (ATCC)
T5 sequence (P23219 24-599): as above
Method: Human amnionic WISH cells were grown to 80% confluence in 48 well plates. Following removal of the growth medium and two washings with Geys Balanced Salt Solutn, 5 ng IL-1β /ml (UBI, Lake Placid, N.Y.) was added to the cells with or without test compound in DMSO (0.01% v/v) in Neuman-Tytell Serumless Medium (GIBCO, Grand Island, N.Y.). Following an 18 hour incubation to allow for the maximal induction of PGHS-2, the conditioned medium was removed and assayed for PGE2 content by EIA analysis as described above.
Monocyte U937 (ATCC, Rockville, Md.) cells were grown in a similar fashion to the WISH cells. After incubation, the conditioned medium was removed and assayed for […] by EIA analysis as described above.

[9] = target: T6, Human whole blood Cox-2 (Homo sapiens, UniProt P35354); experiment: Human whole blood assay Cyclooxygenase-2; format: cell-based
T6 construct: from tissue; host or cells: heparinised human whole blood stimulated with E. coli LPS
T6 sequence (P35354 18-604): T1 sequence (P35354 18-604)
Method: Heparin anticoagulated blood was incubated with drugs dissolved in DMSO. The samples are incubated at 37 degrees Celsius for 15 minutes. E. coli lipopolysaccaride (LPS) 5 μg/ml dded and the samples incubated for 5 hours. The reaction was stopped with the addition of EGTA and cold methanol (50% final concentration). After 18 hours at −70 degree Celsius, the plates were centrifuged and supernatants analyzed for TXB2.

[10] = target: T7, Human whole blood Cox-1 (Homo sapiens, UniProt P23219); experiment: Human whole blood assay Cyclooxygenase-1; format: cell-based
T7 construct: from tissue; host or cells: human blood: isolated platelets (A4) or heparinised whole blood (A9)
T7 sequence (P23219 24-599): as above
Method: Heparin anticoagulated blood was incubated with drugs dissolved in DMSO. The samples are incubated at 37 degrees Celsius for 4.5 hours after which calcium ionophore at a final concentration of 30 μM was added and the mixture allowed to incubate for 30 minutes. The reaction was stopped with the addition of EGTA and cold methanol (50% final concentration). After 18 hours at −70 degrees Celsius, the plates were centrifuged and supernatants analyzed for TXB2.

[11] = Pharmacokinetic profile (plasma concentration, half life, AUC); format: in vivo, Rat; settings: for half-life: Rat IV (3mg/kg); for AUC / concentration at 14 day: rat; for concentration at 14 day: oral, based on 10 mg/kg dosage, read-out: 14 day plasma micromolar concentration
[12] = read-out: RHUCX2 % Inh. at Dose

CS(=O)(=O)c1ccc(-c2cnn(-c3ccc(F)c(Cl)c3)c(=O)c2-c2ccc(F)cc2)cc1 [Example 187, 2-(3-Chloro-4-fluorophenyl)-4-(4-fluorophenyl)-5-[4-(methylsulfonyl)phenyl]-3(2H)-pyridazinone]
inhibition in vivo at 3 mg/kg [1]: 30% | inhibition in vivo at 10 mg/kg [2]: 51% | IC50 [3]: 0.015 µM | IC50 [4]: 12.6 µM | IC50 [5]: 0.094 µM | melting point: 155 to 157 °C | inhibition in vivo at 10 mg/kg [6]: 28% | inhibition at 100 µM [7]: 2%

CS(=O)(=O)c1ccc(-c2cnn(Cc3ccc(F)cc3)c(=O)c2-c2ccc(F)cc2)cc1 [Example 20]
inhibition at 1 µM ([8]; U-937, 1 μM, read-out: U937 % Inhib. at Dose): 33% | IC50 [3]: 0.001 µM | inhibition at 0.01 µM [5, 12]: 9% | inhibition at 0.1 µM [5, 12]: 86% | melting point: 153 to 154 °C | inhibition at 100 µM [7]: 10%

NS(=O)(=O)c1ccc(-c2cnn(CC(F)(F)F)c(=O)c2-c2ccc(Cl)cc2)cc1 [Example 69, 2-(2,2,2-Trifluoroethyl)-4-(4-chlorophenyl)-5-[4-(aminosulfonyl)phenyl]-3(2H)-pyridazinone]
inhibition in vivo at 3 mg/kg [1]: 87% | inhibition in vivo at 10 mg/kg [2]: 61% | IC50 [3]: 0.02 µM | IC50 [4]: 1.14 µM | inhibition at 0.01 µM [5, 12]: 30% | inhibition at 0.1 µM [5, 12]: 29% | inhibition at 1 µM ([5]; 1 μM, read-out: RHUCX2 % Inh. at Dose): 88% | melting point: 154 to 156 °C | inhibition in vivo at 10 mg/kg [6]: 45.5% | CPE ED30 [6]: ED30 = 5.4 | inhibition at 100 µM [7]: 2%

CC(C)(O)CCOc1c(-c2ccc(S(C)(=O)=O)cc2)cnn(-c2ccc(F)c(F)c2)c1=O [Example 471, 2-(3,4-Difluorophenyl)-4-(3-hydroxy-3-methyl-1-butoxy)-5-[4-(methylsulfonyl)phenyl]-3(2H)-pyridazinone]
ED50 [1]: 0.9 mg/kg | inhibition at 0.03 µM ([9]; 0.03 micromolar): 85% | inhibition at 30 µM ([10]; 30 micromolar): 55.5% | IC50 [3]: 0.04 µM | IC50 [4]: 0.32 µM | IC50 [5]: 0.49 µM | melting point: 131 to 133 °C | inhibition in vivo at 10 mg/kg [6]: 41% | IC50 ([7]; read-out: RHUCX1 IC50 (parenthetical value)): 3.68 µM

CC(C)CCOc1c(-c2ccc(S(C)(=O)=O)cc2)cnn(-c2ccc(F)cc2)c1=O [Example 375, 2-(4-Fluorophenyl)-4-(3-methylbutoxy)-5-[4-(methylsulfonyl)phenyl]-3(2H)-pyridazinone]
inhibition in vivo at 3 mg/kg [1]: 77.5% | ED50 [1]: 0.57 mg/kg | IC50 [3]: 0.089 µM | half-life [11]: 2.9 h | AUC [11]: 1.8 µM·h | concentration at 14 day [11]: 0 µM | IC50 [4]: 2.04 µM | IC50 [5]: 0.18 µM | melting point: 117 to 120 °C | inhibition in vivo at 10 mg/kg [6]: 47% | inhibition at 10 µM [7]: 31% | inhibition at 100 µM [7]: 46%

CC(C)(O)CCOc1c(-c2ccc(S(C)(=O)=O)cc2)cnn(-c2ccc(F)cc2)c1=O [Example 451, 2-(4-Fluorophenyl)-4-(3-hydroxy-3-methyl-1-butoxy)-5-[4-(methylsulfonyl)phenyl]-3(2H)-pyridazinone]
inhibition in vivo at 3 mg/kg [1]: 80.5% | ED50 [1]: 0.7 mg/kg | IC50 [9]: 0.47 µM | IC50 [10]: 29.1 µM | IC50 [3]: 0.15 µM | half-life [11]: 5.2 h | AUC [11]: 69 µM·h | concentration at 14 day [11]: 3.43 µM | IC50 [4]: 22.4 µM | IC50 [5]: 0.47 µM | melting point: 133 to 134 °C | CPE ED30 [6]: ED30 = 0.82 | inhibition at 100 µM [7]: 10%

CC(C)=CCn1ncc(-c2ccc(S(C)(=O)=O)cc2)c(-c2ccc(F)cc2)c1=O [Example 24, 2-(3-Methyl-2-butenyl)-4-(4-fluorophenyl)-5-[4-(methylsulfonyl)phenyl]-3(2H)-pyridazinone]
IC50 ([8]; read-out: U937 IC50 (parenthetical value)): 0.19 µM | melting point: 169 to 172 °C | inhibition at 10 µM [7]: 0% | inhibition at 100 µM [7]: 60%
